Data: US20260116920A1, “HUMAN TRANSFERRIN RECEPTOR BINDING PEPTIDE” (PEPTIDREAM INC., priority 2021, published 2026)
Read-outs that look alike come from different tables or passages of the source. Positions of bridges follow the written chain, without caps; N, C: chain ends. Non-standard residues stand in square brackets, D forms with d. Residues, ends and D or L forms follow the SMILES beside them. *: point of attachment. Trp(1-CH2COOH) = N[C@@H](Cc1cn(CC(=O)O)c2ccccc12)C(=O)O; NMePhe(4-COOH) = CN[C@@H](Cc1ccc(C(=O)O)cc1)C(=O)O; Nle(6-morpholino) = N[C@@H](CCCCN1CCOCC1)C(=O)O; Phe(3-COOH) = N[C@@H](Cc1cccc(C(=O)O)c1)C(=O)O; Trp(7-aza) = N[C@@H](Cc1c[nH]c2ncccc12)C(=O)O; NH(CH2CH2O)8Me = COCCOCCOCCOCCOCCOCCOCCOCCN*; NMePhe(3-Cl) = CN[C@@H](Cc1cccc(Cl)c1)C(=O)O; 3Pal(6-NH2) = Nc1ccc(C[C@H](N)C(=O)O)cn1; X2 = COCCOCCOCCOCCOCCOCCOCCOCCNC(=O)C*; NMeY = CN[C@@H](Cc1ccc(O)cc1)C(=O)O; 3Pal = N[C@@H](Cc1cccnc1)C(=O)O; 4Pal = N[C@@H](Cc1ccncc1)C(=O)O; PEG4 = NCCOCCOCCOCCOCCC(=O)O; Carboxymethyl = O=C(O)C*

Molecular target: T1, human transferrin receptor (hTfR) (Homo sapiens, UniProt P02786)
T1 construct: made in house
T1 sequence (P02786 89-760 limits assumed): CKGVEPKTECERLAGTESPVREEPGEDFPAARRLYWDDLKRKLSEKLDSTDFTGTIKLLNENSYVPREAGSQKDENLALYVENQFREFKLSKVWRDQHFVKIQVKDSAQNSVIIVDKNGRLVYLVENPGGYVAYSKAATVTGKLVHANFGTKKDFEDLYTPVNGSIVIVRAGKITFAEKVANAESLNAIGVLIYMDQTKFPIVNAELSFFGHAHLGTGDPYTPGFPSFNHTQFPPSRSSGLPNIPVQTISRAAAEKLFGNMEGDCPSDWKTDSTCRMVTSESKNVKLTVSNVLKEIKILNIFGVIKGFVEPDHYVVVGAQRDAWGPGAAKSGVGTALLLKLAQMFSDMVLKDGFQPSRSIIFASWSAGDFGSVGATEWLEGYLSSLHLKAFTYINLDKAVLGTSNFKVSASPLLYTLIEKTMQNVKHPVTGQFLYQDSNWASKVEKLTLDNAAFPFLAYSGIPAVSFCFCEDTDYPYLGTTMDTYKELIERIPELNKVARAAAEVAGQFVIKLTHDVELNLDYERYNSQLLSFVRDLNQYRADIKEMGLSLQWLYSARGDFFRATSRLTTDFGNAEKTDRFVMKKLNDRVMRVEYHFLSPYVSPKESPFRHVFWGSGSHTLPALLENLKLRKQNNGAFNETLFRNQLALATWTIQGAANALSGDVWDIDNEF
Experiment: Evaluation of molecular interaction between transferrin receptor (hTfR) and peptide using surface plasmon resonance (SPR)
Assay type: binding
Protocol: Evaluation Test of Molecular Interaction Between Transferrin Receptor (hTfR) and Peptide Using Surface Plasmon Resonance (SPR)
The intermolecular interactions of various synthesized peptides with the transferrin receptor (hTfR) by surface plasmon resonance (SPR) of the peptides were tested by the methods described below. Specific test methods are shown below.
NTA sensor chip (Global Life Sciences Technologies Japan K.K.) was inserted into BiacoreT200 (Global Life Sciences Technologies Japan K.K.), then the priming operation was performed three times by using running buffer containing: 10 mM HEPES pH 8.0 (Nacalai Tesque, Inc.), 150 mM NaCl (Nacalai Tesque, Inc.), 0.05% Tween 20 (Nacalai Tesque, Inc.), 0.1% BSA (SIGMA-ALDRICH) and 1.0% DMSO (FUJIFILM Wako Pure Chemical Corporation), and equilibrated at a flow rate of 30 μL/min. 350 mM EDTA solution was reacted at a flow rate of 10 μL/min for 60 seconds, 0.5 mM […] solution (Kishida Chemical Co., Ltd.) was reacted at a flow rate of 10 μL/min for 60 seconds, and then the NTA sensor chip was washed with 3 mM EDTA solution (Nacalai Tesque, Inc.) at a flow rate of 10 μL/min for 60 seconds. After mixing 50 μL each of 60 mM EDC solution (Global Life Science Technologies Japan K.K.) and 650 mM NHS solution (Global Life Science Technologies Japan K.K.), the reaction was carried out at a flow rate of 10 μL/min for 420 seconds. 150 μL of 0.5 μM hTfR dimer solution was prepared by dilution with running buffer and reacted at a flow rate of 10 μL/min for 300 seconds to immobilize hTfR on the NTA sensor chip. For the human transferrin receptor (hTfR), recombinant hTfR described in Example 2 of WO2018/124121 was used. After immobilization, capping was performed by reacting with 1.0 M ethanolamine solution (Global Life Sciences Technologies Japan K.K.) at a flow rate of 10 μL/min for 420 seconds. Peptide lysate prepared in DMSO solution to 10 mM was diluted with running buffer to be a final concentration of 10 μM peptide lysate, then peptide solutions of 100 nM, 50 nM, 25 nM, 10 nM, and 5 nM were prepared. Using the above samples, the kinetics of the peptide against hTfR was obtained by SPR measurement.
The kinetic evaluation model was single-cycle kinetics, and curve fitting was performed using Biacore T200 Evaluation Software Version 3.0 (Global Life Science Technologies Japan K.K.). The binding of the peptide to hTfR was evaluated by performing curve fitting on the obtained sensorgram by least squares method and obtaining the KD value.

[1] = peptide with linker, surface plasmon resonance, read-out: SPR (KD class for binding to hTfR)
[2] = surface plasmon resonance, binding to hTfR, KD class symbol, read-out: SPR (KD value)
[3] = KD class for binding to hTfR by SPR, peptide with the linker shown in the same line, 'low signal indicates no activity', read-out: SPR

Row | Compound | Kd [2] [µM] | also measured
1 | CC[C@H](C)[C@@H]1NC(=O)[C@H](Cc2ccc(OCC(=O)NCCOCCOCCOCCOCCOCCOCCOCCOC)cc2)NC(=O)[C@H](Cc2ccc(O)cc2)NC(=O)[C@H](CC(N)=O)NC(=O)[C@H](Cc2c[nH]c3ncccc23)NC(=O)[C@H](C(C)C)NC(=O)[C@H](Cc2cccc(Cl)c2)N(C)C(=O)[C@H](C(C)C)NC(=O)[C@H](C)NC(=O)CSC[C@@H](C(=O)NCCOCCOCCOCCOCCC(N)=O)NC(=O)[C@H](Cc2ccc(C(=O)NCCOCCOCCOCCOCCOCCOCCOCCOC)cc2)N(C)C(=O)[C@H](Cc2ccncc2)NC(=O)[C@H](CCC(N)=O)NC(=O)[C@H](CCC(N)=O)NC(=O)[C@H]([C@@H](C)CC)NC1=O [compound 227] ({CH2CO}-AV[NMePhe(3-Cl)]V[Trp(7-aza)]NYY(X2)IIQQ[4Pal][NMePhe(4-COOH)](NH(CH2CH2O)8Me)C[PEG4]-NH2; thioether N-15) |  | Kd [1]: 0.001 to 0.1 µM
2 | CC[C@H](C)[C@@H]1NC(=O)[C@H](Cc2ccc(OC)cc2)NC(=O)[C@H](Cc2ccc(O)cc2)NC(=O)[C@H](CC(N)=O)NC(=O)[C@H](Cc2c[nH]c3ccc(Cl)cc23)NC(=O)[C@H](C(C)C)NC(=O)[C@H](Cc2ccc(F)cc2)N(C)C(=O)[C@H](C(C)C)NC(=O)[C@H](C)NC(=O)CSC[C@@H](C(=O)NCCOCCOCCOCCOCCC(N)=O)NC(=O)[C@H](Cc2ccc(O)cc2)N(C)C(=O)[C@H](Cc2ccccc2)NC(=O)[C@H](CCCNC(=N)N)NC(=O)[C@H](CCCNC(=N)N)NC(=O)[C@H]([C@@H](C)CC)NC1=O [compound 23] | < 0.001 | 
3 | CC[C@H](C)[C@@H]1NC(=O)[C@H](Cc2cccnc2)NC(=O)[C@H](Cc2ccc(N)nc2)NC(=O)[C@H](CC(N)=O)NC(=O)[C@H](Cc2cn(CC(=O)O)c3ccccc23)NC(=O)[C@H](C(C)C)NC(=O)[C@H](Cc2cccc(Cl)c2)N(C)C(=O)[C@H](C(C)C)NC(=O)[C@H](C)NC(=O)CSC[C@@H](C(=O)NCCOCCOCCOCCOCCC(N)=O)NC(=O)[C@H](Cc2ccc(O)cc2)N(C)C(=O)[C@H](Cc2ccccc2)NC(=O)[C@H](CCCNC(=N)N)NC(=O)[C@H](CCCNC(=N)N)NC(=O)[C@H]([C@@H](C)CC)NC1=O [894_0338] ({CH2CO}-AV[NMePhe(3-Cl)]V[Trp(1-CH2COOH)]N[3Pal(6-NH2)][3Pal]IIRRF[NMeY]C[PEG4]-NH2; thioether N-15) |  | Kd [3]: 0.001 to 0.1 µM
4 | CC[C@H](C)[C@@H]1NC(=O)[C@H](Cc2ccc(O)cc2)NC(=O)[C@H](Cc2ccc(O)cc2)NC(=O)[C@H](CC(N)=O)NC(=O)[C@H](Cc2c[nH]c3ccccc23)NC(=O)[C@H](C(C)C)NC(=O)[C@H](Cc2ccccc2)N(C)C(=O)[C@H](C(C)C)NC(=O)[C@H](C)NC(=O)CSC[C@@H](C(=O)NCCOCCOCCOCCOCCC(N)=O)NC(=O)[C@H](Cc2ccc(O)cc2)N(C)C(=O)[C@H](Cc2ccccc2)NC(=O)[C@H](CCCNC(=N)N)NC(=O)[C@H](CCCNC(=N)N)N(C)C(=O)[C@H]([C@@H](C)CC)NC1=O [compound 16] | 0.001 to 0.1 | 
5 | CC[C@H](C)[C@@H]1NC(=O)[C@H](Cc2ccc(OCC(=O)O)cc2)NC(=O)[C@H](Cc2ccc(O)cc2)NC(=O)[C@H](CC(N)=O)NC(=O)[C@H](Cc2c[nH]c3ncccc23)NC(=O)[C@H](C(C)C)NC(=O)[C@H](Cc2cccc(Cl)c2)N(C)C(=O)[C@H](C(C)C)NC(=O)[C@H](C)NC(=O)CSC[C@@H](C(=O)NCCOCCOCCOCCOCCC(N)=O)NC(=O)[C@H](Cc2ccc(O)cc2)N(C)C(=O)[C@H](Cc2cccc(C(=O)O)c2)NC(=O)[C@H](CCCCN2CCOCC2)NC(=O)[C@H](CCC(=O)NCCOCCOCCOCCOCCOCCOCCOCCOC)NC(=O)[C@H]([C@@H](C)CC)NC1=O [compound 220] ({CH2CO}-AV[NMePhe(3-Cl)]V[Trp(7-aza)]NYY(Carboxymethyl)IIE(NH(CH2CH2O)8Me)[Nle(6-morpholino)][Phe(3-COOH)][NMeY]C[PEG4]-NH2; thioether N-15) |  | Kd [1]: 0.001 to 0.1 µM
6 | CC[C@H](C)[C@@H]1NC(=O)[C@H](Cc2cccnc2)NC(=O)[C@H](Cc2ccc(N)nc2)NC(=O)[C@H](CC(N)=O)NC(=O)[C@H](Cc2cn(CC(=O)O)c3ccccc23)NC(=O)[C@H](C(C)C)NC(=O)[C@H](Cc2cccc(Cl)c2)N(C)C(=O)[C@H](C(C)C)NC(=O)[C@H](C)NC(=O)CSC[C@@H](C(=O)NCCOCCOCCOCCOCCC(N)=O)NC(=O)[C@H](Cc2ccc(O)cc2)N(C)C(=O)[C@H](Cc2cccc(C(=O)O)c2)NC(=O)[C@H](CCCNC(=N)N)NC(=O)[C@H](CCCNC(=N)N)NC(=O)[C@H]([C@@H](C)CC)NC1=O [compound 79] ({CH2CO}-AV[NMePhe(3-Cl)]V[Trp(1-CH2COOH)]N[3Pal(6-NH2)][3Pal]IIRR[Phe(3-COOH)][NMeY]C[PEG4]-NH2; thioether N-15) | 0.001 to 0.1 | 
7 | CC[C@H](C)[C@@H]1NC(=O)[C@H](Cc2ccc(OCC(=O)O)cc2)NC(=O)[C@H](Cc2ccc(O)cc2)NC(=O)[C@H](CC(N)=O)NC(=O)[C@H](Cc2cn(CC(=O)O)c3ccccc23)NC(=O)[C@H](C(C)C)NC(=O)[C@H](Cc2cccc(Cl)c2)N(C)C(=O)[C@H](C(C)C)NC(=O)[C@H](C)NC(=O)CSC[C@@H](C(=O)NCCOCCOCCOCCOCCC(N)=O)NC(=O)[C@H](Cc2ccc(O)cc2)N(C)C(=O)[C@H](Cc2ccccc2)NC(=O)[C@H](CCC(=O)NCCO)NC(=O)[C@H](CCCNC(=N)N)NC(=O)[C@H]([C@@H](C)CC)NC1=O [894_0381] |  | Kd [3]: 0.001 to 0.1 µM
8 | CC[C@H](C)[C@@H]1NC(=O)[C@H](Cc2ccc(O)cc2)NC(=O)[C@H](Cc2ccc(O)cc2)NC(=O)[C@H](CC(N)=O)NC(=O)[C@H](Cc2c[nH]c3ccccc23)NC(=O)[C@H](C(C)C)NC(=O)[C@H](Cc2ccccc2)N(C)C(=O)[C@H](C(C)C)NC(=O)[C@H](C)NC(=O)CSC[C@@H](C(N)=O)NC(=O)[C@H](Cc2ccc(O)cc2)N(C)C(=O)[C@H](Cc2ccccc2)NC(=O)[C@H](CCCNC(=N)N)NC(=O)[C@H](CCCCNC(=O)CCOCCOCCOCCOC)NC(=O)[C@H]([C@@H](C)CC)NC1=O [compound 1] | 0.001 to 0.1 | 
9 | CC[C@H](C)[C@@H]1NC(=O)[C@H](Cc2ccc(OC)cc2)NC(=O)[C@H](Cc2ccc(N)nc2)NC(=O)[C@H](CC(N)=O)NC(=O)[C@H](Cc2cn(CC(=O)O)c3ccccc23)NC(=O)[C@H](C(C)C)NC(=O)[C@H](Cc2cccc(Cl)c2)N(C)C(=O)[C@H](C(C)C)NC(=O)[C@H](C)NC(=O)CSC[C@@H](C(=O)NCCOCCOCCOCCOCCC(N)=O)NC(=O)[C@H](Cc2ccc(O)cc2)N(C)C(=O)[C@H](Cc2ccncc2)NC(=O)[C@H](CCCNC(=N)N)NC(=O)[C@H](CCCNC(=N)N)NC(=O)[C@H]([C@@H](C)CC)NC1=O [compound 50] | 0.001 to 0.1 | 
10 | CC[C@H](C)[C@@H]1NC(=O)[C@H](Cc2cccnc2)NC(=O)[C@H](Cc2ccc(N)nc2)NC(=O)[C@H](CC(N)=O)NC(=O)[C@H](Cc2c[nH]c3ccccc23)NC(=O)[C@H](C(C)C)NC(=O)[C@H](Cc2cccc(Cl)c2)N(C)C(=O)[C@H](C(C)C)NC(=O)[C@H](C)NC(=O)CSC[C@@H](C(=O)NCCOCCOCCOCCOCCC(N)=O)NC(=O)[C@H](Cc2ccc(O)cc2)N(C)C(=O)[C@H](Cc2ccncc2)NC(=O)[C@H](CCC(=O)NCCOCCOCCOCCOCCOCCOCCOCCOC)NC(=O)[C@H](CCCNC(=N)N)NC(=O)[C@H]([C@@H](C)CC)NC1=O [compound 98] ({CH2CO}-AV[NMePhe(3-Cl)]VWN[3Pal(6-NH2)][3Pal]IIRE(NH(CH2CH2O)8Me)[4Pal][NMeY]C[PEG4]-NH2; thioether N-15) | 0.001 to 0.1 | 
11 | CC[C@H](C)[C@@H]1NC(=O)[C@H](Cc2ccc(O)cc2)NC(=O)[C@H](Cc2ccc(O)cc2)NC(=O)[C@H](CC(N)=O)NC(=O)[C@H](Cc2c[nH]c3ccc(Cl)cc23)NC(=O)[C@H](C(C)C)NC(=O)[C@H](Cc2ccc(F)cc2)N(C)C(=O)[C@H](C(C)C)NC(=O)[C@H](C)NC(=O)CSC[C@@H](C(=O)NCCOCCOCCOCCOCCC(N)=O)NC(=O)[C@H](Cc2ccc(O)cc2)N(C)C(=O)[C@H](Cc2ccccc2)NC(=O)[C@@H](CCCNC(=N)N)NC(=O)[C@H](CCCNC(=N)N)N(C)C(=O)[C@H]([C@@H](C)CC)NC1=O [compound 25] | 0.1 to 1 | 
12 | CC[C@H](C)[C@@H]1NC(=O)[C@H](Cc2ccc(OC)cc2)NC(=O)[C@H](Cc2ccc(O)cc2)NC(=O)[C@H](CC(N)=O)NC(=O)[C@H](Cc2c[nH]c3ccccc23)NC(=O)[C@H](C(C)C)NC(=O)[C@H](Cc2cccc(Cl)c2)N(C)C(=O)[C@H](C(C)C)NC(=O)[C@H](C)NC(=O)CSC[C@@H](C(=O)NCCOCCOCCOCCOCCC(N)=O)NC(=O)[C@H](Cc2cccnc2)N(C)C(=O)[C@H](Cc2ccncc2)NC(=O)[C@H](CCCNC(=N)N)NC(=O)[C@H](CCCNC(=N)N)NC(=O)[C@H]([C@@H](C)CC)NC1=O [compound 66] | 0.001 to 0.1 | 
